Key:
Erk = experiment: Western blot of B16F10 cells, Erk; format: cell-based, mouse; conditions: 50 μM (FIG. 9)
Protocol: B16F10 cells were cultured in 10-cm plates and then treated in duplicate with carrier or curcumin (50 μM). Following treatment for appropriate time periods, the cells were washed with PBS, lysed in RIPA buffer (PBS containing 1% Nonidet P40, 0.5% sodium deoxycholate, 0.1% SDS, 0.5 mM Na3VO4 plus freshly added PMSF and protease inhibitor cocktail; Boeringer-Roche), and then 20 μg of lysate protein (per lane) were analyzed by SDS-10% PAGE and Western blot analysis. Antibody concentrations used were: anti-phospho-NF-κB (1:1000) (Santa Cruz Biotechnology, Santa Cruz, Calif.), anti-phospho-Akt (1:5000) (Cell Signaling, CA), anti-cyclin D1 (1:1000) (Cell Signaling, CA), anti-BclXL (1:500) (Santa Cruz Biotechnology), anti-VEGF (1:500) (Santa Cruz Biotechnology), and anti-β-actin (1:1000) (Sigma, St. Louis, Mo.).

melanoma cell lines = melanoma cell lines (Siwak et al. 2005); cited from earlier work
ovarian cancer = conditions: orthotopic murine model of ovarian cancer (Lin et al. 2007); cited from earlier work
[1] = tested on: B16F10 mouse melanoma cells; experiment: Tumor formation in peripheral tissue (B16F10 cells injected into the neck); format: in vivo, C57BL mice
Protocol: Generation of Tumors. C57BL mice were given food and water ad libitum and subjected to 12 hour dark/12 hour light cycles. To generate tumors in the peripheral tissue, B16F10 mouse melanoma cells (10^4 cells in 10 μl PBS) were injected into the necks of male and female C57BL mice. Curcumin Treatment. The control mice received, aseptically, the carrier (3% DMSO in 200 μl PBS) daily through the tail vein after placing the mouse in a restraining cage without anesthetics. Other mice similarly received […] in 200 μl of PBS containing 3% DMSO daily through the tail vein.

[2] = tested on: normal (non-tumor) brain cells; experiment: Normal brain cell viability (MTT on brain sections); format: in vivo; conditions: 200 μl of 667 μM, tail vein, three consecutive days; compared to carrier-injected mice (FIG. 10)
Protocol: In each experiment, three mice were injected with 200 μl of PBS containing 3% DMSO, and three mice were injected with 200 μl of 667 μM curcumin (as described earlier) through the tail vein on three consecutive days by the method described above. On the fourth day, the mice were perfused with PBS through the heart, and the brains sectioned into 400-μm sections. Similar brain sections were also made from untreated mice which were then treated with 1 mM H2O2 in PBS for one hour, followed by incubation in H2O2-free DTM for three hours. These samples were used as a positive control for cell death.
The sections from each mouse were placed in 400 μl PBS in one well of a 48-well plate (i.e. three wells for three mice) and then treated with 200 μl of MTT (5 mg/ml) per well with gentle mixing at 37° C. for about 2 hours. Subsequently, 800 μl of the lysis buffer was added to each well, and the plate was sealed and incubated overnight at 37° C. with gentle mixing. Three 100-μl portions of the tissue solution obtained were next transferred to three respective wells of a 96-well plate (i.e. three wells per mouse and nine wells for three mice in one group) and absorbance at 570 nm was measured using a 96-well multi scanner auto-reader. Results obtained were normalized to protein levels and then expressed as percent of carrier-treated samples.

B16F10 cells = experiment: Intracranial injection of curcumin on brain tumor cells (B16F10); format: in vivo, mice; conditions: 5 μl of 3 mM curcumin via cannula every other day
Description: Each mouse was fitted with a stainless steel guide cannula (Plastic Ones, System C313G, Roanoke, Va., USA) to administer curcumin directly to the brain. Cannulas were implanted into the right frontal cortex at the same coordinates as used earlier for intracerebral injection. The guide cannula was fixed to the skull with dental cement. A removable stylet plugged the guide cannula except during the time of drug injection. B16F10 cells (103) were delivered into mice in two sets on the first day. Starting from the third day, 5 μl of curcumin (3 mM) in PBS containing 15% DMSO were infused through the cannula of one set of mice (three), whereas the other set of mice (three) received 5 μl of PBS containing 15% DMSO (carrier). Considering that the brain volume of an adult mouse is about 400 μl, dispersion of this solution would give a final concentration of 37.5 μM curcumin and 0.187% DMSO in the brain. This infusion was started on the third day and then performed every other day, until day 19. The brains of the treated mice were removed and soaked (fixed) in 4% paraformaldehyde.

For `COc1cc(/C=C/C(=O)CC(=O)/C=C/c2ccc(O)c(OC)c2)ccc1O` [curcumin], the “Erk (Western blot)” value (Erk) is given as “suppression”, the apoptosis (melanoma cell lines) is given as “induces apoptosis” and the tumor growth (ovarian cancer) is given as “reduces tumor growth”. For the same compound, the “condition of mice after treatment” value ([1]; even after the curcumin injection had been discontinued for 18 days, carrier mice died in about a month) was “remained normal indefinitely”, the “outward sign of tumor or lesion” value ([1]; male and female C57BL mice, B16F10 cells in neck, 667 curcumin in 200 μl PBS 3% DMSO daily, tail vein) was “no outward sign of tumor or lesion” and the “cell viability in the brain (MTT activity)” value [2] was “did not cause suppression of cell viability”. The “mice with a detectable brain tumor” value (B16F10 cells; day 3 to day 19 (FIG. 11)) was “None” and the behavior (B16F10 cells; day 3 to day 19, carrier mice collapsed day 15-25) was “normal behavior”.

From US20100197584A1, “USE OF CURCUMIN TO BLOCK BRAIN TUMOR FORMATION IN MICE” (Research Foundations of the City University of- New York, priority 2007, published 2010)
